Biological target: β2AR (Homo sapiens, UniProt P07550)
Assay: BRET analysis of β-arrestin2 binding to the β2AR in HEK 293 cells
Format: cell-based
Experimental: Schematic of screening methodologies for cAMP production and β-arrestin binding. Cells were treated with the unbiased beta-agonist isoproterenol (ISO)±test compounds. The primary high throughput screen utilized a luciferase-based cAMP biosensor, GLOSENSORTM (Promega), and an enzyme complementation-based assay, […]® (DiscoveRx). Independent secondary screening utilized a cAMP ELISA and BRET for β-arrestin recruitment. […] Secondary screen for cAMP production by ELISA. […] Cells were lysed and cAMP production was measured. […] Dose response curve for DFPQ as measured by BRET. […] Data for dose response curve was taken 12 min post ISO addition. n=3. […] Cells were lysed and cAMP production was measured by ELISA. […] Cells were read every 2 min post agonist addition. […] Cells were read every three minutes for 18 minutes on a PolarStar Optima plate reader (BMG) to establish peak signal. […] Luminescence was determined at room temperature (23-25° C.) on a PolarStar Optima plate reader (BMG). […] Relative assay bias was calculated from the ratio of normalized cAMP and arrestin recruitment responses. […] BRET was measured using a Tecan Infinite F500 microplate reader. […] Bound [35 S]GTPγS was collected by rapid filtration on GF/B filters, washed 4 times with 4 ml of cold GTPγS wash buffer and analyzed by liquid scintillation counting. […] Band intensity was measured by densitometry using ImageJ. […]

Chain of β2AR (P07550 whole entry): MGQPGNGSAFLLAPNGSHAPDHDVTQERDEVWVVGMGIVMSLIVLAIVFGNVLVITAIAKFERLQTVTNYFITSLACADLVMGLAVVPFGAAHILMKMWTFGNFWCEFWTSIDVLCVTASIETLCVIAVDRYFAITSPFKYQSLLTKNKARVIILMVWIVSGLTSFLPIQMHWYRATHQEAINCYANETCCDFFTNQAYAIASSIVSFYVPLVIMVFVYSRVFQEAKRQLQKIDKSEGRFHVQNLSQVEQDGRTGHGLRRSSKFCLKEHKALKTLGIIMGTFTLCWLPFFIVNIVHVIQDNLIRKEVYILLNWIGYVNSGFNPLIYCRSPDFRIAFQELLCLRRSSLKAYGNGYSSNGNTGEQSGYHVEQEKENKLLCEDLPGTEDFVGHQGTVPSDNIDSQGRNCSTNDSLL

Structure (SMILES): Fc1ccc(Nc2nc(NC3CCCCC3)c3ccccc3n2)cc1F [DFPQ, N^4-cyclohexyl-N^2-(3,4-difluorophenyl)quinazoline-2,4-diamine]
- β-arrestin2 recruitment to the β2AR (10 μM DFPQ, over the measured time course, FIG. 2A): fully inhibited
- mode of inhibition, global curve fitting and Schild analysis of ISO dose response curves (β-arrestin recruitment readout, FIG. 1D): non-competitive inhibition

From US20240166626A1, “Compounds and Methods for Preventing, Treating, or Ameliorating Airway Disease” (THOMAS JEFFERSON UNIVERSITY, priority 2021, published 2024)
